This passage reports T/C results from PubChem BioAssay AID248 (DTP/NCI, 2004).

Several values for one entry are separate records, joined by “and”; a condition that tells them apart may be missing. Equal values may be shown once. Inconclusive results and toxic doses are left out.

For this assay, the system named is L1210 leukemia ip in BDF1 mice, survival T/C. The assay is described as follows: NCI In Vivo Anticancer Drug Screen. Data for tumor model L1210 Leukemia (intraperitoneal) in B6D2F1 (BDF1) mice. As to conditions: endpoint: mean survival time, higher = longer survival. Put shortly: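 Antitumor effect is assessed in tumor-bearing animals. Survival in the compound arm is compared with a vehicle-dosed control arm and expressed as their quotient.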

[1] abbreviates: dose: 75.0 mg/kg/injection, schedule: Q01DX001 (ip), vehicle: carboxymethylcellulose (CMC).
Where [2] appears, read: dose: 100.0 mg/kg/injection, schedule: Q04DX003 (ip), vehicle: Klucel (hydroxypropylcellulose) (HPC).
Setting [3] is: dose: 200.0 mg/kg/injection, schedule: Q04DX003 (ip), vehicle: Klucel (hydroxypropylcellulose) (HPC).
Where [4] appears, read: dose: 400.0 mg/kg/injection, schedule: Q04DX003 (ip), vehicle: Klucel (hydroxypropylcellulose) (HPC).
Setting [5] is: dose: 50.0 mg/kg/injection, schedule: Q04DX002 (ip), vehicle: saline with Tween-80.
Setting [6] is: dose: 100.0 mg/kg/injection, schedule: Q04DX002 (ip), vehicle: saline with Tween-80.
[7] abbreviates: dose: 200.0 mg/kg/injection, schedule: Q04DX002 (ip), vehicle: saline with Tween-80.
[8] abbreviates: dose: 400.0 mg/kg/injection, schedule: Q04DX002 (ip), vehicle: saline with Tween-80.
[9] abbreviates: dose: 100.0 mg/kg/injection, schedule: Q01DX001 (ip), vehicle: saline.
Setting [10] is: dose: 200.0 mg/kg/injection, schedule: Q01DX001 (ip), vehicle: saline.

With `COc1cc(NC(=O)N(CCCl)N=O)cc(OC)c1OC`, the T/C (dose: 0.12 mg/kg/injection, schedule: Q01DX009 (ip), vehicle: saline) is 105 % of control; the T/C (dose: 0.25 mg/kg/injection, schedule: Q01DX009 (ip), vehicle: saline) is 118 % of control; the T/C (dose: 0.5 mg/kg/injection, schedule: Q01DX009 (ip), vehicle: saline) was 112 % of control; the T/C (dose: 1.0 mg/kg/injection, schedule: Q01DX009 (ip), vehicle: saline) was 115 % of control; the T/C (dose: 1.5 mg/kg/injection, schedule: Q01DX001 (ip), vehicle: carboxymethylcellulose (CMC)) is 111 % of control; the T/C (dose: 2.5 mg/kg/injection, schedule: Q01DX009 (ip), vehicle: saline) is 161 % of control. Besides, the T/C (dose: 3.0 mg/kg/injection, schedule: Q01DX001 (ip), vehicle: carboxymethylcellulose (CMC)) was 108 % of control; the T/C (dose: 5.0 mg/kg/injection, schedule: Q01DX009 (ip), vehicle: saline) is 177 % of control; the T/C (dose: 6.0 mg/kg/injection, schedule: Q01DX001 (ip), vehicle: carboxymethylcellulose (CMC)) is 118 % of control; the T/C (dose: 10.0 mg/kg/injection, schedule: Q01DX009 (ip), vehicle: saline) is 164 % of control; the T/C (dose: 11.0 mg/kg/injection, schedule: Q01DX009 (ip), vehicle: saline with Tween-80) was 157 % of control and 216 % of control; the T/C (dose: 12.0 mg/kg/injection, schedule: Q01DX001 (ip), vehicle: carboxymethylcellulose (CMC)) was 151 % of control. Moreover, the T/C runs as follows: (dose: 15.0 mg/kg/injection, schedule: Q01DX009 (ip), vehicle: saline) 164 % of control; (dose: 16.6 mg/kg/injection, schedule: Q01DX009 (ip), vehicle: saline with Tween-80) 223 % of control; (dose: 22.0 mg/kg/injection, schedule: Q01DX009 (ip), vehicle: saline) 216 % of control; (dose: 25.0 mg/kg/injection, schedule: Q01DX001 (ip), vehicle: carboxymethylcellulose (CMC)) 252 % of control; (dose: 25.0 mg/kg/injection, schedule: Q01DX001 (ip), vehicle: saline) 155 % of control; (dose: 25.0 mg/kg/injection, schedule: Q01DX009 (ip), vehicle: saline with Tween-80) 208 % of control. The T/C (dose: 33.0 mg/kg/injection, schedule: Q01DX009 (ip), vehicle: saline) was 178 % of control; the T/C (dose: 37.5 mg/kg/injection, schedule: Q01DX001 (ip), vehicle: saline) is 153 % of control; the T/C (dose: 37.5 mg/kg/injection, schedule: Q01DX009 (ip), vehicle: saline with Tween-80) is 110 % of control; the T/C (dose: 50.0 mg/kg/injection, schedule: Q01DX001 (ip), vehicle: carboxymethylcellulose (CMC)) was 106 % of control; the T/C (dose: 50.0 mg/kg/injection, schedule: Q01DX009 (ip), vehicle: saline) is 260 % of control; the T/C under setting [1] is 236 % of control. In addition, the T/C (dose: 75.0 mg/kg/injection, schedule: Q01DX009 (ip), vehicle: saline) was 173 % of control.
Regarding `CN(C)c1ccc(C(=O)c2ccccc2)cc1`, the T/C was 101 % of control (dose: 50.0 mg/kg/injection, schedule: Q01DX009 (ip), vehicle: Klucel (hydroxypropylcellulose) (HPC)); 108 % of control (dose: 100.0 mg/kg/injection, schedule: Q01DX009 (ip), vehicle: Klucel (hydroxypropylcellulose) (HPC)); 100 % of control under setting [2]; 95 % of control (dose: 200.0 mg/kg/injection, schedule: Q01DX009 (ip), vehicle: Klucel (hydroxypropylcellulose) (HPC)); 105 % of control under setting [3]; 102 % of control (dose: 400.0 mg/kg/injection, schedule: Q01DX009 (ip), vehicle: Klucel (hydroxypropylcellulose) (HPC)). For the same molecule, the T/C under setting [4] was 100 % of control.
Turning to `CCN(CC)C(=O)Nc1cc2c3c(c1)CCCN3CCC2`, the T/C by setting is: under setting [5], 96 % of control; under setting [6], 93 % of control; under setting [7], 90 % of control; under setting [8], 114 % of control.
In the case of `C=CCCC1(Cc2ccccc2)C(=O)NC(=O)NC1=O`, the T/C is 97 % of control (dose: 75.0 mg/kg/injection, schedule: Q01DX001 (ip), vehicle: saline) and 97 % of control (dose: 150.0 mg/kg/injection, schedule: Q01DX001 (ip), vehicle: saline).
For the molecule `CC1C(c2ccccc2)OCCN1C` (stereo not given), the T/C was 108 % of control (dose: 50.0 mg/kg/injection, schedule: Q04DX003 (ip), vehicle: saline); 93 % of control under setting [9]; 108 % of control (dose: 100.0 mg/kg/injection, schedule: Q04DX003 (ip), vehicle: saline); 104 % of control under setting [10]; 104 % of control (dose: 200.0 mg/kg/injection, schedule: Q04DX003 (ip), vehicle: saline).
With `O=[N+]([O-])c1ccc(-c2nnc(-c3ccccc3O)o2)cc1`, the T/C under setting [5] is 92 % of control, the T/C under setting [6] was 89 % of control, the T/C under setting [7] was 89 % of control and the T/C under setting [8] is 89 % of control.
Regarding `O=S(=O)(Cc1ccccc1)C(CCCc1ccccc1)S(=O)(=O)Cc1ccccc1`, the T/C was 97 % of control (dose: 100.0 mg/kg/injection, schedule: Q01DX001 (ip), vehicle: carboxymethylcellulose (CMC)); 92 % of control (dose: 200.0 mg/kg/injection, schedule: Q01DX001 (ip), vehicle: carboxymethylcellulose (CMC)); 91 % of control (dose: 400.0 mg/kg/injection, schedule: Q01DX001 (ip), vehicle: carboxymethylcellulose (CMC)).
With `O=C(Nc1cccc(F)c1)N(CCO)C1CCCCC1`, the T/C is, setting by setting: (dose: 100.0 mg/kg/injection, schedule: Q01DX009 (ip), vehicle: saline) 105 % of control; (dose: 200.0 mg/kg/injection, schedule: Q01DX009 (ip), vehicle: saline) 113 % of control; (dose: 400.0 mg/kg/injection, schedule: Q01DX009 (ip), vehicle: saline) 100 % of control.
Turning to `CN(C)Cc1ccnc(Cl)n1`, where the note is “dose: 2.0 mg/kg/injection, schedule: Q01DX Z (ip), vehicle: methylcellulose (MC)”, the T/C is 93 % of control.
Regarding `COC(=O)c1ccc(OCc2ccccc2)cc1`, the T/C under setting [2] is 103 % of control, the T/C under setting [3] is 100 % of control and the T/C under setting [4] is 92 % of control.
With `CCCCCCCCCCCC[P+](CCCC)(CCCC)CCCC`, the T/C runs as follows: (dose: 0.55 mg/kg/injection, schedule: Q01DX Z (ip), vehicle: saline) 110 % of control; (dose: 1.16 mg/kg/injection, schedule: Q01DX Z (ip), vehicle: saline) 100 % of control; (dose: 1.25 mg/kg/injection, schedule: Q01DX Z (ip), vehicle: saline) 110 % of control.
With `C/C(CN(C)C)=N\O`, the T/C was 101 % of control (dose: 100.0 mg/kg/injection, schedule: Q04DX002 (ip), vehicle: saline); 99 % of control (dose: 200.0 mg/kg/injection, schedule: Q04DX002 (ip), vehicle: saline); 92 % of control (dose: 400.0 mg/kg/injection, schedule: Q04DX002 (ip), vehicle: saline).
Turning to `CCN(CC)CCC(O)c1ccc2c(c1)[nH]c1ccccc12` (stereo not given), the T/C was 97 % of control under setting [1] and 103 % of control (dose: 150.0 mg/kg/injection, schedule: Q01DX001 (ip), vehicle: carboxymethylcellulose (CMC)).
Take `Clc1ccccc1C=Nc1ccc2c(c1)Cc1ccccc1-2`: the T/C is 87 % of control (dose: 100.0 mg/kg/injection, schedule: Q01DX001 (ip), vehicle: Klucel (hydroxypropylcellulose) (HPC)); 101 % of control under setting [2]; 93 % of control (dose: 200.0 mg/kg/injection, schedule: Q01DX001 (ip), vehicle: Klucel (hydroxypropylcellulose) (HPC)); 94 % of control under setting [3]; 87 % of control (dose: 400.0 mg/kg/injection, schedule: Q01DX001 (ip), vehicle: Klucel (hydroxypropylcellulose) (HPC)); 101 % of control under setting [4].
As to `CC(C)(C)N1CC1C(=O)Sc1ccccc1` (stereo not given), the T/C runs as follows: (dose: 25.0 mg/kg/injection, schedule: Q04DX003 (ip), vehicle: Klucel (hydroxypropylcellulose) (HPC)) 102 % of control; (dose: 50.0 mg/kg/injection, schedule: Q04DX003 (ip), vehicle: Klucel (hydroxypropylcellulose) (HPC)) 101 % of control; under setting [2], 109 % of control.
On to `CN1COc2c(n(C)c(=O)[nH]c2=O)C1`, for which the T/C runs as follows: (dose: 50.0 mg/kg/injection, schedule: Q01DX001 (ip), vehicle: saline) 97 % of control; under setting [9], 103 % of control; under setting [10], 89 % of control; (dose: 400.0 mg/kg/injection, schedule: Q01DX001 (ip), vehicle: saline) 101 % of control.
In the case of `CCC1CCC(Cc2ccncc2)CC1` (stereo not given), the T/C was 98 % of control under setting [2] and 92 % of control under setting [3].
